Test results reported in US20250188085A1, “COMPOSITIONS AND METHODS FOR INHIBITION OF RAS” (THERAS, INC., priority 2022, published 2025).

Tests used:
[1] = molecular target: T1, GDP-loaded KRAS4b (amino acids 1-169) G12C/C118S protein (Homo sapiens, UniProt P01116, C118S/G12C); assay: Covalent cysteine 12 modification by MALDI-TOF MS, GDP-loaded KRAS G12C; type: binding; details: 15 minutes reaction time point
T1 construct: KRAS4b (amino acids 1-169) G12C/C118S protein; made in house
Procedure, shortened: (§1)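 KRAS4b 1-169 G12C/C118S loaded with GDP, GppNHp or GTP was used at 1 μM in 20 mM HEPES, 150 mM NaCl, 1 mM MgCl2, pH 7.3, and incubated with compound (5 mM DMSO stock) at room temperature in the dark. % modification at 15 min is adduct peak height over total protein peak heights by linear-mode MALDI-TOF.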

pERK in NCI-H358 cells = assay: Cell-based pERK HTRF assay; details: Homo sapiens, NCI-H358, 0.5 h, 30 min incubation, read-out: pERK in NCI-H358 cell inhibition IC50
Procedure, shortened: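 Cells seeded at 4×10^4/well in RPMI with 10% FBS, then next day treated for 30 min with a 9-point, 3-fold series from 75 μM top concentration at 0.25% DMSO. Lysates were read for pERK by HTRF (d2/Eu cryptate antibodies) after 4–24 h at room temperature, emission at 615 nm.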

[2] = molecular target: T2, GppNHp-loaded KRAS4b (amino acids 1-169) G12C/C118S protein (Homo sapiens, UniProt P01116, C118S/G12C); assay: Covalent cysteine 12 modification by MALDI-TOF MS, GppNHp-loaded KRAS G12C; type: binding; details: 15 minutes reaction time point
T2 construct: KRAS4b (amino acids 1-169) G12C/C118S protein; made in house
Procedure, shortened: as §1

[3] = molecular target: T3, GTP-loaded KRAS4b (amino acids 1-169) G12C/C118S protein (Homo sapiens, UniProt P01116, C118S/G12C); assay: Covalent cysteine 12 modification by MALDI-TOF MS, GTP-loaded KRAS G12C; type: binding; details: 15 minutes reaction time point
T3 construct: KRAS4b (amino acids 1-169) G12C/C118S protein; made in house
Method: Reaction: 1 μM of GppNHp-, GTP-, or GDP-loaded KRAS4b (amino acids 1-169) G12C/C118S protein (produced in-house by Protein Expression Laboratory, FNLCR/Leidos Biomed) in 20 mM 4-(2-hydroxyethyl)-1-piperazineethanesulfonic acid (HEPES) buffer containing 150 mM NaCl, 1 mM MgCl2, pH 7.3 was prepared freshly before assay. Ten-μL aliquots of protein were dispensed onto low volume 384-well plate, then 375 nL DMSO, and 25 nL of tested compounds from 5 mM DMSO stocks were added to appropriate wells using ECHO 555 acoustic liquid handler (Labcyte Inc.). For each reaction/assay, three blanks were prepared by mixing 10 μL of protein solution with 400 nL DMSO. The contents of the wells were carefully mixed by aspiration, and then each plate was sealed with an adhesive cover, centrifuged at 2000 g for 1 minute, and kept in the dark at room temperature until 5 min, 15 min, 30 min, or 2 h collections.
Target pretreatment: Before each assay MALDI target (Bruker MPT 384 ground steel BC) was pre-treated by pipetting on each spot 0.75 μL of saturated sinapinic acid in acetonitrile (ACN).
Sample preparation: At collection time point, 2 μL of reaction mixtures were pipetted out into 20 μL MALDI matrix solution (saturated solution of sinapinic acid in 1:1 ACN:water solution containing 0.75% trifluoroacetic acid (TFA)) deposited on 384 well polypropylene plate. Resulting solution was mixed by aspiration, centrifuged at 2000 g for 1 minute, then 1 μL aliquots were dispensed on pre-treated MALDI target using Beckman Coulter Biomek FXP 96/384-Span-8 Laboratory Automation Workstation. Finally, the MALDI target was dried under mild vacuum to produce spots with fine crystalline structure.
Measurements: MALDI-TOF measurements were performed on a Bruker Daltonics rapiflex Tissuetyper TOF-TOF mass spectrometer using linear mode and mass range from 18.6 to 21.6 kDa. Detector gain was set to 3.3× (483 V), sample rate to 5 GS/s, real time smoothing to medium (175 MHz), laser smart beam pattern was set to: “MS Thin Layer M5”, and the laser frequency was 10000 Hz. Spectra were automatically collected using custom Auto Xecute method. Laser power was auto adjusted using fuzzy control. The peak selection range was set to be between 19000 and 21500 Da. Peak evaluation uses half width parameter set to be smaller than 40 Da for processed spectrograms (centroid peak detection; smoothed by SavitzkyGolay algorithm using 7 m/z width and 2 cycles; baseline was subtracted using median algorithm with flatness 1 and median level 0.01). Fuzzy control used Proteins/Oligonucleotides protocol with minimum half width 1/10 times above threshold. Up to 40000 satisfactory shots were collected in 10000 shot steps. Dynamic termination was implemented to finish data collection when peak signal/noise ratio was reaching value of 50.
Spectra processing: Spectra were smoothed by SavitzkyGolay algorithm using 7 m/z width and three cycles. Centroid peak detection algorithm was used with signal to noise threshold set to 6, relative intensity threshold 4%, peak width 10 m/z and median baseline subtraction using flatness of 1 and median level of 0.01. Peak intensity and area under the peak were evaluated and recorded for all peaks between 19,300 Da and 21,550 Da.
Calculation of percent modification: Percent modification was calculated as a ratio of peak height for protein modified by compound to sum of peak height of remaining protein plus peak height for protein modified by compound. If multiple modifications were observed each was calculated as a ratio of peak height for given modification versus sum of peak heights for all observed protein species. Data reported in Table 5 are from 15 minutes reaction time point.

[4] = molecular target: T4, Avi-KRAS G12C (1-169) GppNHp/RAF1 RBD-3×FLAG (52-151) (Homo sapiens, UniProt P01116, G12C); assay: Raf1 RBD-KRAS G12C-GppNHp disruption (protein:protein interaction HTRF assay); type: biochemical
T4 construct: Avi-KRAS G12C (1-169) GppNHp/RAF1 RBD-3×FLAG (52-151)
Procedure, shortened: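 HTRF measuring disruption of 50 nM Avi-KRAS G12C (1-169) loaded with GppNHp binding RAF1 RBD-3×FLAG (52-151), in pH 7.5 Tris buffer with 5 mM MgCl2, 0.1% BSA, 10% DMSO. KRAS preincubated with compound 1 h, then RBD 1 h, then detection reagents 1 h, all at room temperature. Compound titration 30-0.02 μM; activity expressed as percent of DMSO control.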

GDP-KRAS G12C percent of modification [1] | IC50 (pERK in NCI-H358 cells) | GppNHp-KRAS G12C percent of modification [2] | GTP-KRAS G12C percent of modification [3] | IC50 [4] | SMILES
A (percent of modification ≥70%) | 100 to 1000 nM | C (10%≤modification <50%) | D (percent of modification <10%) | 500 to 5000 nM | C=CC(=O)N1CC[C@@H](Oc2nc(OC[C@@]34CCCN3C[C@H](F)C4)nc3c(F)c(-c4c(F)cc(F)c5sc(N)nc45)ncc23)C1 [Compound 57]
A (percent of modification ≥70%) | ≤ 100 nM | A (percent of modification ≥70%) | B (50≤percent of modification <70%) | ≤ 500 nM | C=CC(=O)N1C[C@@H](F)[C@@H](Oc2nc(OC[C@@]34CCCN3C[C@H](F)C4)nc3cc(-c4ccc(F)c5sc(N)nc45)c(C(F)(F)F)cc23)C1 [Compound 58]
A (percent of modification ≥70%) | ≤ 100 nM | B (50≤percent of modification <70%) | C (10%≤modification <50%) | ≤ 500 nM | C=CC(=O)N1C[C@H](Oc2nc(OC[C@@]34CCCN3C[C@H](F)C4)nc3cc(-c4ccc(F)c5sc(N)nc45)c(C(F)(F)F)cc23)[C@@H](F)C1 [Compound 59]
A (percent of modification ≥70%) | ≤ 100 nM | B (50≤percent of modification <70%) | C (10%≤modification <50%) | ≤ 500 nM | C=CC(=O)N1CC[C@@H](Oc2nc(OC[C@@]34CCCN3C[C@H](F)C4)nc3cc(-c4ccc(F)c5sc(N)nc45)c(C(F)(F)F)cc23)[C@H]1C [Compound 60]
C (10%≤modification <50%) | ≤ 100 nM | C (10%≤modification <50%) | C (10%≤modification <50%) | ≤ 500 nM | C=CC(=O)N1CCC(Oc2nc(OC[C@@]34CCCN3C[C@H](F)C4)nc3c(F)c(-c4ccc(F)c5sc(N)c(C#N)c45)c(C(F)(F)F)cc23)C1(C)C (some centres unmarked) [Compound 61]
B (50≤percent of modification <70%) | ≤ 100 nM | B (50≤percent of modification <70%) | C (10%≤modification <50%) | ≤ 500 nM | C=CC(=O)N1CC[C@@H](Oc2nc(OC[C@@]34CCCN3C[C@H](F)C4)nc3c(F)c(-c4ccc(F)c5sc(N)c(C#N)c45)c(C(F)(F)F)cc23)[C@H]1C [Compound 62, 4-(4-(((2R,3R)-1-acryloyl-2-methylpyrrolidin-3-yl)oxy)-8-fluoro-2-(((2R,7aS)-2-fluorotetrahydro-1H-pyrrolizin-7a (5H)-yl)methoxy)-6-(trifluoromethyl)quinazolin-7-yl)-2-amino-7-fluorobenzo[b]thiophene-3-carbonitrile]
B (50≤percent of modification <70%) | ≤ 100 nM | A (percent of modification ≥70%) | B (50≤percent of modification <70%) | ≤ 500 nM | C=CC(=O)N1CC[C@@H](Oc2nc(OC[C@@]34CCCN3C[C@H](F)C4)nc3c(F)c(-c4ccc(F)c5sc(N)c(C#N)c45)c(C(F)(F)F)cc23)[C@H]1CO [Compound 65]
A (percent of modification ≥70%) | ≤ 100 nM | A (percent of modification ≥70%) | C (10%≤modification <50%) | ≤ 500 nM | C=CC(=O)N1C[C@H](Oc2nc(OC[C@@]34CCCN3C[C@H](F)C4)nc3c(F)c(-c4ccc(F)c5sc(N)nc45)c(C(F)(F)F)cc23)C[C@H]1CO [Compound 66]
B (50≤percent of modification <70%) | ≤ 100 nM | B (50≤percent of modification <70%) | B (50≤percent of modification <70%) | ≤ 500 nM | C=CC(=O)N1C[C@H](Oc2nc(OC[C@@]34CCCN3C[C@H](F)C4)nc3c(F)c(-c4ccc(F)c5sc(N)c(C#N)c45)c(C(F)(F)F)cc23)[C@@H](F)C1 [Compound 67]
A (percent of modification ≥70%) | 100 to 1000 nM | A (percent of modification ≥70%) | C (10%≤modification <50%) | ≤ 500 nM | C=CC(=O)N1C[C@H](Oc2nc(OC[C@@]34CCCN3C[C@H](F)C4)nc3c(F)c(-c4ccc(F)c5sc(N)c(C#N)c45)ccc23)C[C@H]1C [Compound 68]
A (percent of modification ≥70%) | ≤ 100 nM | A (percent of modification ≥70%) | C (10%≤modification <50%) | ≤ 500 nM | C=CC(=O)N1C[C@H](Oc2nc(OC[C@@]34CCCN3C[C@H](F)C4)nc3c(F)c(-c4ccc(F)c5sc(N)nc45)c(C(F)(F)F)cc23)C[C@@H]1CO [Compound 69]
A (percent of modification ≥70%) | ≤ 100 nM | A (percent of modification ≥70%) | B (50≤percent of modification <70%) | ≤ 500 nM | C=CC(=O)N1C[C@@H](F)[C@@H](Oc2nc(OC[C@@]34CCCN3C[C@H](F)C4)nc3c(F)c(-c4ccc(F)c5sc(N)c(C#N)c45)ncc23)C1 [Compound 70]
C (10%≤modification <50%) | ≤ 100 nM | C (10%≤modification <50%) | D (percent of modification <10%) | ≤ 500 nM | C=CC(=O)N1CC[C@@H](Oc2nc(OC[C@@]34CCCN3C[C@H](F)C4)nc3c(F)c(-c4ccc(F)c5sc(N)c(C#N)c45)c(C(F)(F)F)cc23)[C@H]1CF [Compound 71]
